In patent publication US10485766B2, “Drug delivery system and method for the treatment of neuro-degenerative disease” (Aphios Corporation, priority 2011, dated 2019):

Tests used:
[1] = system: alpha-secretase processing of amyloid precursor protein (APP); test: alpha-secretase processing of APP to s-APP alpha in SH-SY5Y neuroblastoma cell line; type: cell-based; settings: as nanospheres
From the text: (§1) These events are well-described cell and pharmacological events associated with prevention of beta-secretase mediated formation of beta-amyloid, the presumptive cause of dementia in human Alzheimer's disease and in the sweAPP/PS1 mouse model of Alzheimer's disease.

[2] = target: T1, protein kinase C (PKC) isoform alpha (Homo sapiens, UniProt P17252); test: PKC alpha activation (membrane translocation) in SH-SY5Y cells; type: cell-based; settings: as nanospheres; SH-SY5Y neuroblastoma cell line
T1 construct: (measured by membrane translocation) in the SH-SY5Y neuroblastoma cell line; endogenous in cells; host or cells: SH-SY5Y neuroblastoma cell line

[3] = target: T2, protein kinase C (PKC) isoform epsilon (Homo sapiens, UniProt Q02156); test: PKC epsilon activation (membrane translocation) in SH-SY5Y cells; type: cell-based; settings: as nanospheres; SH-SY5Y neuroblastoma cell line
T2 construct: (measured by membrane translocation) in the SH-SY5Y neuroblastoma cell line; endogenous in cells; host or cells: SH-SY5Y neuroblastoma cell line
T2 sequence (Q02156 1-737): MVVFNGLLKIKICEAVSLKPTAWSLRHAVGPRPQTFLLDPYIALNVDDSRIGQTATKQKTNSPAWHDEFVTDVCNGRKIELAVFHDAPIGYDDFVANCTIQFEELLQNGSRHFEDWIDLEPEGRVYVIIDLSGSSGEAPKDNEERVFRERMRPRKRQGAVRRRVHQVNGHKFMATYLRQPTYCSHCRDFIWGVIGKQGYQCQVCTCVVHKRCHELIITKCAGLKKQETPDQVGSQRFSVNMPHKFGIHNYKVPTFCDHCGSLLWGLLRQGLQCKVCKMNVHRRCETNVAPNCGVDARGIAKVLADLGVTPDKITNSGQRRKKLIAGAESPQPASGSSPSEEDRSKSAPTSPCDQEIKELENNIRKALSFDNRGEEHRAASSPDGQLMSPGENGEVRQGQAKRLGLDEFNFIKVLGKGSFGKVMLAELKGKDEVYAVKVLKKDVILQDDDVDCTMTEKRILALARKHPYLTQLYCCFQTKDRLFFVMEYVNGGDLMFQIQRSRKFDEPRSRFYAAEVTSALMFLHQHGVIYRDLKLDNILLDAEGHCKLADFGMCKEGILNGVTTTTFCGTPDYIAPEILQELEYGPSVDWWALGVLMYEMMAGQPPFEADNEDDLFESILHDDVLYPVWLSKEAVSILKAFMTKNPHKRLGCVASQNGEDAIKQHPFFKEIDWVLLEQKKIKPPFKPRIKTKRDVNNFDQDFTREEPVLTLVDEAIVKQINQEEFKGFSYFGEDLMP
From the text: as §1

[4] = Concentrations of Bryostatin in different solvents (normal phase HPLC); type: physicochemical; settings: for Concentration: theoretical 2.5 mg/100 mL
Protocol: Isopropyl alcohol, Extra Virgin olive oil, sesame oil, and vegetable oil were all used as solvents.
Thirty microliters of the stock solution were placed in each of 4 clean, dry HPLC vials. The ethanol was allowed to evaporate, leaving 25 micrograms in the vial. Then, 1.0 mL of the solvent was placed in the vial and vortexed to ensure proper mixing. These samples were then injected on a normal phase HPLC system, with a gradient of 10%-70% isopropyl alcohol in hexane as the mobile phase (specifically developed for this experiment).
The concentration of each vial theoretically should be 2.5 mg/100 mL.
The reason for the higher concentrations than the standard (isopropyl alcohol) is due to the baseline. While attempting a baseline subtraction for each oil, there was negative absorbance so the blank IPA sample was subtracted from each sample's baseline. While this incorporates a little more area for integration, the amount of Bryostatin in the oil was quantifiable.

[5] = system: Mouse strain B6C3-Tg carrying mutant sweAPP and PS1 genes; test: Water maze studies; type: in vivo; settings: 5 micrograms/mouse on alternative days orally in oil formulation; sweAPP/PS1 mice, 5-6 months of age; versus control animals
From the text: Mouse strain B6C3-Tg carrying mutant Swedish Amyloid precursor protein (sweAPP) and PS1 (presenilin-1) genes associated with early onset Alzheimer's disease were subjected to water maze tests at 5-6 months of age.

For `CCC/C=C/C=C/C(=O)O[C@H]1/C(=C/C(=O)OC)C[C@H]2C[C@H]([C@@H](C)O)OC(=O)C[C@H](O)C[C@@H]3C[C@H](OC(C)=O)C(C)(C)[C@](O)(C[C@@H]4C/C(=C/C(=O)OC)C[C@H](/C=C/C(C)(C)[C@]1(O)O2)O4)O3` [Bryostatin-1], the “alpha-secretase processing of APP to s-APP alpha” value [1] was “induce alpha-secretase processing of amyloid precursor protein (APP) to s-APP alpha”, the “activation of PKC alpha (membrane translocation)” value [2] was “activate” and the “activation of PKC epsilon (membrane translocation)” value [3] was “activate”. It also gave a Concentration ([4]; Solvent Extra Virgin Olive Oil) of 2.9945 mg/100 mL, a Concentration ([4]; Solvent Extra Virgin olive with mixed natural tocopherol antioxidants, lecithin and medium chain triglyceride emulsifiers) of 2.4431 mg/100 mL and a Concentration ([4]; Solvent Isopropyl Alcohol (standard)) of 2.6035 mg/100 mL. The Concentration ([4]; Solvent Vegetable Oil) was 2.5475 mg/100 mL, the solubility in oils ([4]; different types of oil) was “soluble” and the “protection against memory loss in water maze” value [5] was “significant protection”.
